In ChEMBL document CHEMBL5357075, “Innovative Therapeutic Strategies in TYK2-Targeted Treatments: From Cancer to Autoimmune Disorders” (ACS Med Chem Lett, 2024) one finds IC50 data, which are given here for 3 molecules.

Assay [1] has as its target T1, Non-receptor tyrosine-protein kinase TYK2 (Homo sapiens, UniProt P29597). The assay can be described thus: Inhibition of TYK2 in HEK-Blue IL-23 cells pretreated for 60 mins followed by IL-23 stimulation for 22 to 24 hrs by Quanti-Blue based SEAP assay. It counts as cell-based.
Assay [2] addresses T1, Non-receptor tyrosine-protein kinase TYK2. The assay can be described thus: Inhibition of TYK2 in HEK-Blue alpha/beta cells pretreated for 60 mins followed by IFN-alpha stimulation for 16 to 18 hrs by Quanti-Blue based SEAP assay. It counts as cell-based.

pIC50: −log10 of the molar value.

One may read the pIC50 as the IC50 on a negative log10 scale, so that one unit is a factor of ten.

T1 sequence (P29597 whole entry): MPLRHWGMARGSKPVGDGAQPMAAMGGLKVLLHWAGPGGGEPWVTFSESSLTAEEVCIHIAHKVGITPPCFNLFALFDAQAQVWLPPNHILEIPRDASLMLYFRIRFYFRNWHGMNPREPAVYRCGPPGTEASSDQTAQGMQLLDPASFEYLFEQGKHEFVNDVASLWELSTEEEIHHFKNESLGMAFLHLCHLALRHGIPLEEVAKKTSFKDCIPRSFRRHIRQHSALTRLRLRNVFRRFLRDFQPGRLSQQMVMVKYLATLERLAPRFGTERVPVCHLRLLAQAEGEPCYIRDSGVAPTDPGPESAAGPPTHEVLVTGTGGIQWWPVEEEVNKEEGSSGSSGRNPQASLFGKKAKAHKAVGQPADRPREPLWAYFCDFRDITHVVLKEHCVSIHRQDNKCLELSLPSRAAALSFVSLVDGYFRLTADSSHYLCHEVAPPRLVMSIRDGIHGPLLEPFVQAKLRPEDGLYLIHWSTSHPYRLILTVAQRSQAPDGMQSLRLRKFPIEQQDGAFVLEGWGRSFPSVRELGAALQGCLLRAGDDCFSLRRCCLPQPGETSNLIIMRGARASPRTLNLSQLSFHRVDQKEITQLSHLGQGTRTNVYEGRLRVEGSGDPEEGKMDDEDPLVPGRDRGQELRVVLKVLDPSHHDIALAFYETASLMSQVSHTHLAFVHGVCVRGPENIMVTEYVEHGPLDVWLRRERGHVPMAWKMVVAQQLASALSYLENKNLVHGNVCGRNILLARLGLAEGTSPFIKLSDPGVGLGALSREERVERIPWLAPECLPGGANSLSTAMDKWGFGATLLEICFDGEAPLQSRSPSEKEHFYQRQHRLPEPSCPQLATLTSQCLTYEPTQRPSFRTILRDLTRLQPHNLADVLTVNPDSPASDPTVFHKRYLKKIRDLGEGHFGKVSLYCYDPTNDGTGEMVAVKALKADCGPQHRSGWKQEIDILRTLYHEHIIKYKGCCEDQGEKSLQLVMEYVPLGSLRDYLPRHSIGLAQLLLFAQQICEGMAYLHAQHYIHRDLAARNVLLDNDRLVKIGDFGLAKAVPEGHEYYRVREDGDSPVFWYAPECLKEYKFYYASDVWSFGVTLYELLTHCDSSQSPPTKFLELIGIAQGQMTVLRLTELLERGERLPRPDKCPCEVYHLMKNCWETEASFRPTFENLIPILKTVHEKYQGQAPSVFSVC

Regarding `[2H]C([2H])([2H])CC(=O)c1cnc(NC(=O)C2CC2)cc1Nc1cccc2c1N(C)Cc1nc(C)nn1-2`, the pIC50 in assay [1] is over 7.52; in assay [2], 7.52.

Consider `[2H]C([2H])([2H])CC(=O)c1cnc(NC(=O)C2CC2)cc1Nc1nccc2c1N(C)Cc1nn(CC)nc1-2`, for which the pIC50 in assay [1] was over 7.52; in assay [2], 7.52.

As for `[2H]C([2H])([2H])CC(=O)c1cnc(NC(=O)C2CC2)cc1Nc1cccc2c1N(C)[C@@H](C)c1nn(C)nc1-2`, the pIC50 in assay [1] and in assay [2] was over 7.52 in each case.
